pKi: −log10 of the molar value.
How the values were obtained:
[1] = target: Sigma-2 receptor (TMEM97) (Rattus norvegicus); test: Binding affinity was measured on Sigma receptor type 2 with rat liver membranes and [3H]- DTG as ligand.
[2] = target: Sigma non-opioid intracellular receptor 1 (Cavia porcellus) (UniProt Q60492); test: Binding affinity was measured on Sigma receptor type 1 with guinea pig membranes and [3H]- pentazocine as ligand.
Sequence of Sigma non-opioid intracellular receptor 1 (Cavia porcellus) (Q60492 whole entry, looked up): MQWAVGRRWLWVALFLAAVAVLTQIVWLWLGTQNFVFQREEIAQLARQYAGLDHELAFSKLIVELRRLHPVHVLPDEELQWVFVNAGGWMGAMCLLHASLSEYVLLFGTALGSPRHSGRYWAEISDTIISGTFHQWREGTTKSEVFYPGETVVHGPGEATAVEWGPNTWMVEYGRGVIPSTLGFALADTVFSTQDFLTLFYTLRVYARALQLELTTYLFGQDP

Compound | pKi [1] | pKi [2]
CCN(CC)CCNC(=O)c1cc(I)c(N)cc1OC | 4.67 | 6.32
CCN(CC)CCNC(=O)c1cc(Br)c(N)c(I)c1OC [4-Amino-5-bromo-N-(2-diethylamino-ethyl)-3-iodo-2-methoxy-benzamide] | 5.63 | 6.56
CCN(CC)CCNC(=O)c1cc(I)c(NC(C)=O)cc1OC [4-acetamido-N-(2-(diethylamino)ethyl)-5-iodo-2-methoxybenzamide] | 3.94 | 5.28
CCN(CC)CCNC(=O)c1ccc(OC)c(I)c1 [N-(2-Diethylamino-ethyl)-3-iodo-4-methoxy-benzamide (IMBA)] | 5.19 | 6.60
CCN(CC)CCNC(=O)c1cc(I)ccc1OC [N-(2-Diethylamino-ethyl)-5-iodo-2-methoxy-benzamide] | 5.99 | 7.04
